Here are results for 15 molecules from PubChem BioAssay (NCI).

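Interpolation was linear, between the two tested concentrations surrounding the appropriate level; five concentrations were tested over 48 hours in 96-well plates. At the GI50, growth is halved. TGI marks complete inhibition of growth.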

Among the test systems are CCRF-CEM leukemia; LOX IMVI melanoma; SR leukemia; HT29 colon; SNB-19 CNS; MDA-MB-435; UACC-62 melanoma; HS 578T breast; HOP-62 NSCLC; IGROV1 ovarian.
What all share (assay): NCI-60 cell line screen, 48 h

On to `COc1ccc(-c2cc(-c3ccc(O)cc3O)c(C#N)c(=O)[nH]2)cc1`, for which the TGI with CCRF-CEM leukemia stood at 56.7 µM; in the assay on LOX IMVI melanoma, 31.6 µM; in the assay with SR leukemia, 53.4 µM; in the assay on HT29 colon, 34.6 µM; in the assay on SNB-19 CNS, 53.3 µM; with MDA-MB-435, 36.4 µM. The TGI in the assay on UACC-62 melanoma was 36.2 µM; in the assay with HS 578T breast it was 48.1 µM; with HOP-62 NSCLC, 41.1 µM.
Consider `Cc1ccc(C(=O)Cn2c(C(=O)/C=C/c3cccs3)nc3ccccc32)cc1`, for which the TGI is 38.5 µM with CCRF-CEM leukemia; above 100 µM in the assay on IGROV1 ovarian; above 100 µM in the assay with LOX IMVI melanoma; 50.4 µM in the assay on SR leukemia; above 100 µM in the assay with HT29 colon; above 100 µM in the assay with SNB-19 CNS. Moreover, the TGI was above 100 µM with MDA-MB-435, above 100 µM in the assay with UACC-62 melanoma, 72.6 µM in the assay with HS 578T breast and above 100 µM in the assay on HOP-62 NSCLC.
Take `Nc1ccc(Oc2ccc(C3(c4ccc(Oc5ccc(N)cc5)cc4)C4CC5CC(C4)CC3C5)cc2)cc1`: the TGI was 35.8 µM in the assay with CCRF-CEM leukemia; above 44.5 µM in the assay on IGROV1 ovarian; above 28.4 µM in the assay with LOX IMVI melanoma; 20.3 µM in the assay with SR leukemia; 24.7 µM in the assay on HT29 colon; above 100 µM in the assay with SNB-19 CNS. The TGI was 35.6 µM in the assay on MDA-MB-435, 49.1 µM with UACC-62 melanoma, above 100 µM in the assay on HS 578T breast and 32.3 µM in the assay on HOP-62 NSCLC.
In the case of `Cc1c2c(OCC(O)CN3CCN(c4ccccc4)CC3)nn(C)c(=O)c2c(C)n1-c1ccccc1` (stereo unspecified), the TGI is above 100 µM in the assay on CCRF-CEM leukemia; above 100 µM with IGROV1 ovarian; 46.3 µM with HT29 colon; above 100 µM in the assay with SNB-19 CNS; 91.8 µM with MDA-MB-435; 32 µM in the assay on UACC-62 melanoma. Also, the TGI with HS 578T breast is 65.9 µM; in the assay with HOP-62 NSCLC, above 100 µM.
As to `O=[N+]([O-])c1ccc(Oc2c(Cl)cc(S(=O)(=O)/N=C(\NO)Nc3ccc(Cl)cc3)cc2Cl)c(Cl)c1`, the TGI was 98.4 µM in the assay with CCRF-CEM leukemia; 37.8 µM in the assay on LOX IMVI melanoma; 32.6 µM in the assay with SR leukemia; 30.5 µM with HT29 colon; 30.6 µM in the assay on SNB-19 CNS; 31.3 µM in the assay on MDA-MB-435. Moreover, the TGI in the assay with UACC-62 melanoma came out at 27.5 µM; in the assay on HS 578T breast it was 36 µM; with HOP-62 NSCLC it was 30.3 µM.
With `CCOC(=O)C(Cc1cn(C(C)=O)c2ccccc12)P(=O)(OCC)OCC` (stereo unspecified), the TGI with IGROV1 ovarian, with LOX IMVI melanoma, in the assay with SR leukemia, in the assay on HT29 colon, in the assay on SNB-19 CNS and with HS 578T breast was above 100 µM each time. Moreover, the TGI in the assay on HOP-62 NSCLC was above 100 µM.
Consider `CC(Oc1ccccc1Cl)C(=O)NN1C(=O)CC(=O)NC1=S` (stereo unspecified), for which the TGI in the assay on IGROV1 ovarian, in the assay with LOX IMVI melanoma, in the assay with SR leukemia, in the assay with HT29 colon, in the assay on SNB-19 CNS and in the assay with MDA-MB-435 was above 100 µM throughout. The TGI in the assay on UACC-62 melanoma, with HS 578T breast and in the assay with HOP-62 NSCLC was above 100 µM throughout.
Regarding `C/C(=N\NC(=S)NCCCCNC(=S)N/N=C(\C)c1ccccn1)c1ccccc1`, the TGI was above 28.8 µM with IGROV1 ovarian; 14.3 µM in the assay on LOX IMVI melanoma; 2.17 µM with SR leukemia; above 100 µM in the assay with HT29 colon; above 87.1 µM in the assay with SNB-19 CNS; above 100 µM with MDA-MB-435. The TGI in the assay with UACC-62 melanoma was 7.03 µM; with HS 578T breast, above 100 µM; with HOP-62 NSCLC it was 6 µM.
For `COc1cc2c(cc1OCCCOS(C)(=O)=O)N=C[C@@H]1CCCN1C2=O`, the results for the GI50 with CCRF-CEM leukemia and in the assay on SR leukemia were 52.8 µM and 62.9 µM, respectively. Further, the TGI in the assay with CCRF-CEM leukemia, with IGROV1 ovarian, in the assay on LOX IMVI melanoma, with SR leukemia, in the assay on HT29 colon and in the assay on SNB-19 CNS was above 100 µM each time. The TGI with MDA-MB-435, in the assay with UACC-62 melanoma and with HS 578T breast was above 100 µM in each case.
For `COc1ccc(OC)c(C2CCc3c(cnc4nc(N)nc(N)c34)C2)c1` (stereo unspecified), the TGI was 17.5 µM with IGROV1 ovarian; 15.5 µM with LOX IMVI melanoma; 20.4 µM in the assay on SR leukemia; 16.2 µM in the assay on HT29 colon; 21.5 µM in the assay on SNB-19 CNS; 17.1 µM in the assay with MDA-MB-435. The values for the TGI in the assay on UACC-62 melanoma, in the assay on HS 578T breast and in the assay on HOP-62 NSCLC were 12.3 µM, 53 µM and 26.8 µM, respectively.
Turning to `OCCCNc1ncnc2[nH]ncc12`, the TGI in the assay on CCRF-CEM leukemia, in the assay with IGROV1 ovarian, with LOX IMVI melanoma, with HT29 colon, in the assay on SNB-19 CNS and in the assay with MDA-MB-435 was above 100 µM throughout. The TGI in the assay with UACC-62 melanoma, with HS 578T breast and in the assay on HOP-62 NSCLC was above 100 µM in each case.
On to `N#CCCN(CCC#N)c1ccc(/C=C(\NC(=O)c2cc([N+](=O)[O-])ccc2Cl)C(=O)Nc2ccccc2)cc1`, for which the TGI in the assay on CCRF-CEM leukemia, with IGROV1 ovarian, in the assay on LOX IMVI melanoma, in the assay on SR leukemia, in the assay on SNB-19 CNS and in the assay with UACC-62 melanoma was above 100 µM in each case. The TGI with HOP-62 NSCLC is above 100 µM.
Consider `C/C(=N\NC(=S)N(C)C)c1nc2ncccc2[nH]1`, for which the TGI is 70 µM with IGROV1 ovarian; above 100 µM with LOX IMVI melanoma; above 100 µM in the assay on SR leukemia; above 100 µM in the assay with HT29 colon; 36.1 µM with SNB-19 CNS; above 100 µM in the assay with MDA-MB-435. Besides, the figures for the TGI in the assay on UACC-62 melanoma, in the assay on HS 578T breast and in the assay on HOP-62 NSCLC were 2.7 µM, 7.85 µM and above 100 µM, respectively.
Take `CC(C)CC(=O)NC(C(=O)NC(C(=O)NC(CC(C)C)C(O)CC(=O)NC(C)C(=O)NC(CC(C)C)C(O)CC(=O)O)C(C)C)C(C)C` (stereo unspecified): the TGI in the assay on CCRF-CEM leukemia, in the assay on IGROV1 ovarian, in the assay with LOX IMVI melanoma, in the assay on SR leukemia, with HT29 colon and in the assay on SNB-19 CNS was above 100 µM each time. Besides, the TGI in the assay on MDA-MB-435, in the assay on UACC-62 melanoma and in the assay with HOP-62 NSCLC was above 100 µM each time.
Regarding `CCCn1cc2c(SC)nc(SC)nc2n1`, the TGI with CCRF-CEM leukemia, in the assay on IGROV1 ovarian, in the assay on LOX IMVI melanoma, in the assay on SR leukemia, in the assay with HT29 colon and in the assay on SNB-19 CNS was above 100 µM throughout.
